Test results from US20240099298A1, “BIOINSECTICIDAL COMPOSITIONS CONTAINING MONOTERPENES AND METHODS OF USE THEREOF” (priority 2017, published 2024).
Converted amounts (≈) assume the structure as drawn.

Assays:
[1] = system: Aedes aegypti (Linnaeus) (mosquito); conditions: adult mosquito, exposed 30 minutes, mortality in 24 hours
[2] = system: Blatta lateralis (Walker) (cockroach); conditions: cockroach second instar nymphs, exposed one hour
[3] = system: Tetranychus cinnabarinus (Boisduval) (spider mites); conditions: spider mites, exposed one hour
[4] = system: Bactrocera cucuribitae (Coquillett) (melon fly); conditions: melon fly
[5] = system: Musca domestica (Linnaeus) (housefly); conditions: adult housefly, exposed one hour, mortality in 24 hours
rGABARAP^Y174A [6] = molecular target: T1, rGABARAP^Y174A (Frankliniella occidentalis, UniProt A0A6J1T1Q2); test: ITC binding to rGABARAP mutant; conditions: read-out: Kd value, ITC
T1 sequence (A0A6J1T1Q2 entry or part of it, stated change not applied): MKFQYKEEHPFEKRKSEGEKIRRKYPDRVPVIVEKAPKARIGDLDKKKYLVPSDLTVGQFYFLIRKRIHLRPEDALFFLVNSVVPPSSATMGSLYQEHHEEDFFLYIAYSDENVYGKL
Method: The isothermal titration thermal binding measurements were performed with an ITC-200 calorimeter (GE Healthcare, Boston, MA) at 25° C. in a buffer containing 50 mM Tris-HCl and 100 mM NaCl (pH 7.4). […] The MicroCal Origin 7.0 software system was used for data processing. The first run was a pre-run and was excluded from the final data. The amount of protein in the sample pool was constant. […] The experimental bimolecular interaction data from the 18 drops were used to calculate the dissociation constant. The dissociation constant […] was calculated as 1/K (Li, et al. (2018) RSC Advances 8:18952-18958).
(§1) Preparation of rGABARAP Mutant and Interaction Between ME and rGABARAP Mutant. […] DNAman was used to convert the nucleic acid sequence into an amino acid sequence and find the Y174 site. Y174 was mutated to A174. The rGABARAP mutant gene loaded into the pMCSG19 vector and the His tags at both ends of the sequence were retained to construct a prokaryotic expression plasmid. The carrier contained a maltose binding protein (MBP) tag that was not cut for verification. However, MBP and ME were used as treatment controls. The mutant plasmid was constructed in Sangon Biotech (Shanghai, China). The protein expression, purification, and desalting procedures of rGABARAP^Y174A mutant and rGABARAP were the same. Subsequently, the binding kinetics of ME and rGABARAP^Y174A were tested by MST and ITC.

[7] = system: T. castaneum (red flour beetle); test: Median lethal time (LT50) test, red flour beetle; assay type: in vivo, Tribolium castaneum
Text: (§2) All treatments and controls were in triplicate.
(§3) Toxicity of Monoterpenes as Fumigants. […] Therefore, to determine how fast the monoterpenes act as fumigants, it was necessary to determine their LT50 values for the target organisms.

[8] = system: T. chilonis (parasitic wasp); conditions: non-target parasitic wasp, mortality after 15 minutes of exposure
[9] = T 22-25 °C; cited from earlier work
M. domestica (housefly) = test: Median lethal time (LT50) test, housefly; assay type: in vivo, Musca domestica
Text: as §2, §3

rGABARAP^Y174A [10] = molecular target: T1, rGABARAP^Y174A; test: MST binding to rGABARAP mutant; conditions: read-out: Kd value, MST
Method: Interaction between ME and rGABARAP. A Nano Temper Monolith NT.115 MST system (Nano Temper, Munich, Germany) was used to assess the binding affinities between the target compounds and rGABARAP according to the published procedures (Zan, et al. (2020) Journal of Agricultural and Food Chemistry 68:6280-6285). Spinosyn A was used as a chemical positive control. Spinosyn A (≥1 nM) can trigger a change of the Cl^− current of insect neuron GABAAR, which is considered to be an insecticidal action mechanism of spinosyn A (Watson (2001) Pesticide Biochemistry and Physiology 71:20-28). Ovalbumin (OVA) (Sangon Biotech, Shanghai, China) is a control protein consisting of 385 amino acid residues. The interaction between OVA and ME was used as a protein control experiment (Huntington, et al. (1995) Protein Science 4:613-621).
as §1

For `C=CC(C)(O)CCC=C(C)C` (centres unmarked) [Linalool, 3,7-dimethylocta-1,6-dien-3-o1], the “LC50 (fiducial limits)” value [1] was >243 µg/mL, the “LC90 (fiducial limits)” value [1] was >243 µg/mL and the “LC50 (fiducial limits)” value [2] was 345 µg/mL (≈ 2240 µM). For the same molecule, the “LC90 (fiducial limits)” value [2] was 1700 µg/mL (≈ 11000 µM), the “LC50 (fiducial limits)” value [3] was 550 µg/mL (≈ 3570 µM) and the “LC90 (fiducial limits)” value [3] was 4330 µg/mL (≈ 28100 µM). For the same molecule, the “LC50 (fiducial limits)” value [4] was >243 µg/mL, the “LC90 (fiducial limits)” value [4] was >243 µg/mL and the “LC50 (fiducial limits)” value [5] was 30.6 µg/mL (≈ 198 µM). The “LC90 (fiducial limits)” value [5] was 176 µg/mL (≈ 1140 µM), the Kd (rGABARAP^Y174A [6]) was 8.92 µM and the “LT50 (fiducial limits)” value [7] was 35.1 h. For the same molecule, the “LC50 (fiducial limits) against T. chilonis” value [8] was 2.88 µg/mL (≈ 18.7 µM), the “LC90 (fiducial limits) against T. chilonis” value [8] was 6.24 µg/mL (≈ 40.5 µM) and the “Vp (Pa)/T (° C.)” value [9] was 21.28/22-25 Pa. For the same molecule, the “LT50 (fiducial limits)” value (M. domestica (housefly)) was 1.28 h and the Kd (rGABARAP^Y174A [10]) was 16.3 ± 6.79 µM.
